Data taken from article PMC8537218, “Discovery of a Novel Class of Norovirus Inhibitors with High Barrier of Resistance” (Pharmaceuticals, 2021).
Where two headings read alike, the source gives them in different places.

What was measured:
[1] = Cytotoxicity assay (MTS) on non-infected RAW 264.7 cells; assay type: cell-based; settings: mouse, non-infected RAW 264.7 cells, cytotoxic concentration to induce 50% death of non-infected RAW 264.7 cells; read-out: MNV CC50 ± SD
Description: (§1) Norovirus: The experiment was performed as described earlier. In short, RAW 264.7 cells (1 × 10^4 cells/well) were infected with MNV.CW1 in the presence of a dilution series of compounds. Antiviral activity and cytotoxicity were determined using a colometric assay using 3-(4,5-dimethylthiazol-2-yl)-5-(3-carboxymethoxyphenyl)-2-(4-sulfophenyl)-2H-tetrazolium (MTS). The 50% effective concentration (EC50) was defined as the compound concentration that protected 50% of the cells from CPE. The cell viability % was calculated as (ODtreated/ODCC) […] and the 50% cytotoxic concentration (CC50) was defined as the compound concentration that reduces the number of viable cells by 50%.

RAW 264.7 cells = test: as above; assay type: cell-based; settings: RAW 264.7 cells
Description: as §1

[2] = tested on: HuNoV GI.1 replicon (Norwalk replicon); test: HuNoV GI.1 replicon assay in HG23 cells (RT-qPCR); assay type: cell-based, Human norovirus; settings: Norovirus, HG23, 72 h, Norwalk replicon (human GI.1), HG23 cells, 72 h, replicon RNA by RT-qPCR; read-out: HuNoV Replicon EC50 ± SD
Description: HuNoV GI.1 replicon: The experiment was performed as described earlier with minor modifications. In short, HG23 cells (7.5 × 10^2 cells/well) were seeded into the wells of a 96-well plate without G418 (Geneticin Selective Antibiotic). After 24 h of incubation, serial dilutions of compounds were added. Cells were further incubated for 72 h, then cells were collected for RNA load quantification by RT-qPCR. To determine relative levels of Norwalk virus replicon RNA, β-actin was used as a normalizer and ratios were calculated as previously described.

[3] = tested on: Murine norovirus type 1, strain CW1; test: MNV-induced CPE reduction assay (MTS read-out) in RAW 264.7 cells; assay type: cell-based; settings: MNV CW1, RAW 264.7 cells, read-out: MNV EC50 ± SD
Description: as §1

[4] = tested on: MNV.CW3/S131T and MNV.CW3/Y154F; test: Antiviral assay on reverse-engineered MNV.CW3 mutant viruses (S131T, Y154F); assay type: cell-based, Murine norovirus; settings: single mutations S131T or Y154F in MNV backbone
Description: The desired mutations were introduced into the MNV.CW3 cDNA clones using the QuikChange II XL mutagenesis kit (Agilent) according to the manufacturer’s instructions. The presence of the desired mutation in the produced construct was confirmed by PCR and sequencing was done by Macrogen Inc. Sequences were analyzed and mutations were detected using the Geneious software.
The MNV.CW3 mutant viral stocks were obtained by transfecting the mutated plasmid pMNV CW3 (kindly provided by Prof. Wobus, University of Michigan) in Huh 7 Lunet cells expressing the MNV receptor CD300lf (kindly provided by Prof. Taube, University of Lübeck). Huh-7 CD300lf cells were cultured under selective pressure of G418. The Huh-7 CD300lf cells were seeded in 6-well plates at a density of 2 × 10^5 cells/mL in 2.5 mL of complete media. After 24 h, the cells were transfected with 2.5 μg of pMNV CW3 plasmid DNA using the TransIT mRNA Transfection Kit (Mirus Bio Corporation) according to the manufacturer’s protocol. Red fluorescent protein (RFP) was used as a positive control for transfection. Transfected cells were incubated for 48 h, cells underwent two freeze thaw cycles and the virus was harvested from the supernatants after centrifugation (10 min, 1000× g) and stored at −80 °C. Virus stocks were passaged for three times on BV-2 cells and followed by two consecutive passages on RAW 264.7 cells. Viral titers were determined by serial dilutions on RAW 264.7 cells seeded in 96-well plates.
The assessment of the antiviral activity of compounds on resistant viruses was performed similarly as the regular antiviral assay on MNV. First, the titer of the resistant viruses was determined by endpoint titration. A concentration of 30× TCID50 was used for each virus in the antiviral assays. RAW 264.7 cells (1 × 10^4 cells/well) were seeded in the presence of a dilution series of compounds and infected. Antiviral activity was determined using the MTS method. The 50% effective concentration (EC50) was defined as the compound concentration that protected 50% of the cells from CPE.

MNV = test: Time-of-drug-addition assay (TOA) in MNV-infected RAW 264.7 cells; assay type: cell-based, Murine norovirus; settings: time-of-addition experiment
Description: RAW 264.7 cells (4 × 10^5 cells/mL) were infected with MNV (MOI of 1). After 1 h at 4 °C, cells were washed with cold (4 °C) DMEM to remove unbound viruses. Cells were incubated at 37 °C to start the infection. To study the replication kinetics of MNV supernatant and cells were harvested, from untreated cultures, every 2 h until 24 h post-infection (pi) and viral RNA was quantified by RT-qPCR. In parallel, another set of infected cultures were treated with compound. The compound was added at 2 h intervals and cultures were further incubated until 24 h pi, supernatant and cells were collected separately for determination of the viral RNA by RT-qPCR. The isolation of the extracellular MNV RNA from cell culture supernatant was done by the NucleoSpin RNA Virus Kit (Macherey–Nagel), and the intracellular RNA was extracted from cells by the RNeasy kit (Qiagen).

[5] = RAW264.7, concentration inhibiting norovirus induced cell death (CPE) by 50%

SMILES	CC50 [1] [µM]	cytotoxicity (in words) (RAW 264.7 cells)	melting point [°C]	EC50 [2] [µM]	EC50 [3, 5] [µM]	EC50 ([3]; concentration inhibiting norovirus induced cell death (CPE) by 50%) [µM]	shift in EC50 / sensitivity of mutant viruses [4]	step of the MNV replication cycle at which the compound acts (MNV)
Cc1cc(C)cc(S(=O)(=O)c2c(C(=O)NCCc3ccc(O)cc3)[nH]c3ccc(Cl)cc23)c1 [compound 11, 5-Chloro-3-((3,5-dimethylphenyl)sulfonyl)-N-(4-hydroxyphenethyl)-1H-indole-2-carboxamide]	8.49 ± 8.09	highly cytotoxic	231 to 234	27.5 ± 28.7	36 ± 23.3			
Cc1cc(C)cc(Cc2c(C(=O)NCc3ccc(CO)cc3)[nH]c3ccc(Cl)cc23)c1 [compound 7, 5-Chloro-3-(3,5-dimethylbenzyl)-N-(4-(hydroxymethyl)benzyl)-1H-indole-2-carboxamide]	9.27 ± 6.6		171 to 174	5.59 ± 2.47	0.84 ± 0.22			
Cc1cc(C)cc(S(=O)(=O)c2c(C(=O)NCc3ccc(O)cc3)[nH]c3ccc(Cl)cc23)c1 [compound 4, 5-Chloro-3-((3,5-dimethylphenyl)sulfonyl)-N-(4-hydroxybenzyl)-1H-indole-2-carboxamide]	3.48 ± 1.1	highly cytotoxic	236 to 237	88.3 ± 4.75	> 100			
Cc1cc(C)cc(S(=O)(=O)c2c(C(=O)Nc3ccc(CO)cc3)[nH]c3ccc(Cl)cc23)c1 [compound 1, 5-Chloro-3-((3,5-dimethylphenyl)sulfonyl)-N-(4-(hydroxymethyl)phenyl)-1H-indole-2-carboxamide]	> 100		220 to 221	~2	0.5 ± 0.1	0.52 ± 0.07		
O=C(Nc1ccc(CO)cc1)c1[nH]c2ccc(Cl)cc2c1S(=O)(=O)c1ccccc1 [compound 5, 5-Chloro-N-(4-(hydroxymethyl)phenyl)-3-(phenylsulfonyl)-1H-indole-2-carboxamide]	34.9 ± 5.03		152 to 155		> 100			
C[C@@]1(O)[C@H](O)[C@@H](CO)O[C@H]1n1ccc(N)nc1=O [2CMC, 2′-C-methylcytidine, reference compound]							remained equally sensitive	onset of the viral genome replication
CCOC(=O)/C=C/[C@H](C[C@@H]1CCNC1=O)NC(=O)[C@@H](CC(=O)[C@@H](NC(=O)c1cc(C)on1)C(C)C)Cc1ccc(F)cc1 [rupintrivir]							remained equally sensitive	
Cc1cc(C)cc(S(=O)(=O)c2c(C(=O)NCCO)[nH]c3ccc(Cl)cc23)c1 [compound 3, 5-Chloro-3-((3,5-dimethylphenyl)sulfonyl)-N-(2-hydroxyethyl)-1H-indole-2-carboxamide]	88.7 ± 4.75			47.7 ± 3.39	> 100			
O=C(NCc1ccc(CO)cc1)c1[nH]c2ccc(Cl)cc2c1S(=O)(=O)c1ccccc1 [compound 10, 5-Chloro-N-(4-(hydroxymethyl)benzyl)-3-(phenylsulfonyl)-1H-indole-2-carboxamide]	25.7 ± 34.9		182 to 185	18.5 ± 16.3	0.63 ± 0.48			
Cc1cc(C)cc(C(=O)c2c(C(=O)NCc3ccc(CO)cc3)[nH]c3ccc(Cl)cc23)c1 [compound 8, 5-Chloro-3-(3,5-dimethylbenzoyl)-N-(4-(hydroxymethyl)benzyl)-1H-indole-2-carboxamide]	7.97 ± 15.3		271 to 274		> 100			
Cc1cc(C)cc(Sc2c(C(=O)NCc3ccc(CO)cc3)[nH]c3ccc(Cl)cc23)c1 [compound 9, 5-Chloro-3-((3,5-dimethylphenyl)thio)-N-(4-(hydroxymethyl)benzyl)-1H-indole-2-carboxamide]	31.7 ± 8.01		212 to 215	11.8 ± 8.4	4.39 ± 4.78			
Cc1cc(C)cc(S(=O)(=O)c2c(C(=O)NCc3ccccc3)[nH]c3ccc(Cl)cc23)c1 [compound 2, N-Benzyl-5-chloro-3-((3,5-dimethylphenyl)sulfonyl)-1H-indole-2-carboxamide]	> 100			3.66 ± 0.66	> 100			
